Test results reported in patent US7105531B2, “Tricyclic protein kinase inhibitors” (WYETH, priority 1999, dated 2006).

`N#Cc1cnc2c(c1Nc1cccc(Br)c1)C=C1N=CN=C1C2` [Example 37, 8-(3-Bromo-phenylamino)imidazo[4,5-g]quinoline-7-carbonitrile] gave a melting point of 286 to 288 °C.
In the case of `CCOc1cc2cc3c(Nc4cc(OC)c(Cl)cc4C)c(C#N)cnc3cc2cc1OCCCl` [Example 179, 8-(2-Chloroethoxy)-4-(4-chloro-5-methoxy-2-methylanilino)-7-ethoxybenzo[g]quinoline-3-carbonitrile], the melting point is reported as 129 to 130 °C.
`COc1cc2cc3c(Nc4ccc(Sc5nccn5C)c(Cl)c4)c(C#N)cnc3cc2cc1OCCN1CCN(C)CC1` [Example 152, 4-[3-Chloro-4-(1-methyl-1H-imidazol-2-ylsulfanyl)phenylamino]-7-methoxy-8-[2-(4-methylpiperazin-1-yl)ethoxy]-benzo[g]quinoline-3-carbonitrile] gave a melting point of 184 to 186 °C.
`COc1cc2cc3c(Nc4ccc(Sc5nccn5C)c(Cl)c4)c(C#N)cnc3cc2cc1OCCCN1CCOCC1` [Example 151, 4-[3-Chloro-4-(1-methyl-1H-imidazol-2-ylsulfanyl)phenylamino]-7-methoxy-8-(3-morpholin-4-yl-propoxy)benzo[g]quinoline-3-carbonitrile] gave a melting point of 230 to 235 °C.
With `N#Cc1cnc2c(sc3ccc(N)cc32)c1Nc1cccc(Br)c1` [Example 92, 8-Amino-4-(3-bromoanilino)-[1]benzothieno[3,2-b]pyridine-3-carbonitrile] the melting point was 295 to 300 °C (dec.).
Compound `COc1cc2cc3c(Nc4ccc(Oc5ccccc5)c(Cl)c4)c(C#N)cnc3cc2cc1OCCN1CCOCC1` [Example 213, 4-(3-Chloro-4-phenoxyphenylamino)-7-methoxy-8-(2-morpholin-4-yl-ethoxy)benzo[g]quinoline-3-carbonitrile] has a melting point of 190 to 194 °C.
Work on `COc1cc2cc3c(Nc4ccc(Sc5nccn5C)c(Cl)c4)c(C#N)cnc3cc2cc1OCCCl` [Example 148, 8-(2-Chloroethoxy)-4-[3-chloro-4-(1-methyl-1H-imidazol-2-ylsulfanyl)phenylamino]-7-methoxybenzo[g]quinoline-3-carbonitrile] yielded a melting point of 275 to 280 °C.
With `COc1cc2cc3c(Nc4ccc(Sc5nccn5C)c(Cl)c4)c(C#N)cnc3cc2cc1OCCCCl` [Example 150, 4-[3-Chloro-4-(1-methyl-1H-imidazol-2-ylsulfanyl)phenylamino]-8-(3-chloropropoxy)-7-methoxybenzo[g]quinoline-3-carbonitrile] the melting point was greater than 300 °C.
Work on `C=CC(=O)Nc1cccc2c1sc1c(Nc3cccc(Br)c3)c(C#N)cnc12` [Example 94, N-[4-(3-Bromoanilino)-3-cyano[1]benzothieno[3,2-b]pyridin-6-yl]acrylamide] yielded a melting point of 286 to 287 °C.
With `COc1cc(Nc2c(C#N)cnc3cc4cc(OCCCl)c(OC)cc4cc23)c(Cl)cc1Cl` [Example 126, 4-(2,4-dichloro-5-methoxyanilino)-7-methoxy-8-(chloroethoxy)benzo[g]quinoline-3-carbonitrile] the melting point was 239 to 255 °C (dec.).
`COc1cc2cc3ncc(C#N)c(Nc4ccc(OCc5ccccc5)c(Cl)c4)c3cc2cc1OCCCl` [Example 186, 4-(4-Benzyloxy-3-chlorophenylamino)-7-(2-chloroethoxy)-8-methoxybenzo[g]quinoline-3-carbonitrile] gave a melting point of 182 to 185 °C.
With `CCOC(=O)CN(CCOc1cc2cc3c(Nc4cc(OC)c(Cl)cc4C)c(C#N)cnc3cc2cc1OCC)CC(=O)OCC` [Example 192, ({2[4-(4-Chloro-5-methoxy-2-methylphenylamino)-3-cyano-8-ethoxybenzo[g]quinoline-7-yloxy]-ethyl}-ethoxycarbonylmethyl-amino)-acetic acid ethyl ester] the melting point was 70 to 71 °C.
`N#Cc1cnc2c(sc3ccccc32)c1Oc1ccc(Cl)cc1F` [Example 71, 4-(4-Chloro-2-fluorophenoxy)benzo[4,5]thieno[3,2-b]pyridine-3-carbonitrile] gave a melting point of 174 to 175 °C.
With `COc1cc2cc3ncc(C#N)c(Nc4cc(OC)c(OC)c(OC)c4)c3cc2cc1OCCN1CCOCC1` the melting point was 135 to 138 °C (dec.).
In the case of `COc1cc(Nc2c(C#N)cnc3cc4cc(OC)c(OC)cc4cc23)c(C)cc1Cl`, the melting point is reported as 171 to 173 °C.
In the case of `COc1cc(Nc2c(C#N)cnc3c2C=C2N=C(CN4CCOCC4)N=C2C3)cc(OC)c1OC` [Example 48, 2-(4-Morpholinylmethyl)-8-(3,4,5-trimethoxyanilino)imidazo[4,5-g]quinoline-7-carbonitrile], the melting point is reported as 258 to 260 °C (dec.).
Compound `N#Cc1cnc2c(oc3ccccc32)c1Nc1cccc(Br)c1` [Example 85, 4-(3-Bromophenylamino)benzo[4,5]furo[3,2-b]pyridine-3-carbonitrile] has a melting point of 242 to 245 °C.
`COc1cc(Nc2c(C#N)cnc3cc4cc(OC)c(OCCN5CCC(O)CC5)cc4cc23)c(Cl)cc1Cl` gave a melting point of 150 to 160 °C.
`CCOC(=O)CN(CCOc1cc2cc3ncc(C#N)c(Nc4cc(OC)c(Cl)cc4C)c3cc2cc1OCC)CC(=O)OCC` [Example 193, ({2-[4-(4-Chloro-5-methoxy-2-methylphenylamino)-3-cyano-7-ethoxybenzo[g]quinoline-8-yloxy]-ethyl}-ethoxycarbonylmethylamino)-acetic acid ethyl ester] showed a melting point of 85 to 86 °C.
Work on `COc1cc(Nc2c(C#N)cnc3cc4cc(OCCCCl)c(OC)cc4cc23)c(Cl)cc1Cl` [Example 156, 8-(3-Chloropropoxy)-4-(2,4-dichloro-5-methoxyphenylamino)-7-methoxybenzo[g]quinoline-3-carbonitrile] yielded a melting point of 220 to 223 °C.
With `COc1cc2cc3ncc(C#N)c(Nc4ccc(Cl)cc4Cl)c3cc2cc1OCCN1CCOCC1` the melting point was 115 to 119 °C (dec.).
`COc1cc(Nc2c(C#N)cnc3cc4cc(OC)c(OCCN5CCOCC5)cc4cc23)c(Cl)cc1C` showed a melting point of 240 to 241 °C.
In the case of `COc1cc(Nc2c(C#N)cnc3c2sc2ccc(N)cc23)c(C)cc1Cl` [Example 76, 8-Amino-4-(4-chloro-5-methoxy-2-methylanilino)[1]benzothieno[3,2-b]pyridine-3-carbonitrile], the melting point is reported as 266 to 268 °C (dec.).
`N#Cc1cnc2c(c1Nc1ccc(Oc3ccccc3)cc1)C=C1N=C(N)N=C1C2` [Example 34, 2-Amino-8-(4-phenoxyanilino)imidazo[4,5-g]quinoline-7-carbonitrile] gave a melting point greater than 300 °C.
Work on `N#Cc1cnc2cc3cc(O)ccc3cc2c1Nc1ccc(Cl)cc1Cl` [Example 106, 4-(2,4-Dichloroanilino)-8-hydroxybenzo[g]quinoline-3-carbonitrile] yielded a melting point of 267 to 269 °C.
With `CN(C)CCOc1ccc2cc3ncc(C#N)c(Nc4ccc(Cl)cc4Cl)c3cc2c1` [Example 107, 4-(2,4-Dichloroanilino)-7-[2-(dimethylamino)ethoxy]benzo[g]quinoline-3-carbonitrile] the melting point was 115 to 117 °C.
In the case of `COc1cc2cc3c(Nc4ccc(Cl)cc4Cl)c(C#N)cnc3nc2cc1OC` [Example 177, 4-(2,4-Dichloroanilino)-7,8-dimethoxybenzo[b][1,8]naphthyridine-3-carbonitrile], the melting point is reported as 266 to 270 °C (dec.).
For `COc1cc2cc3ncc(C#N)c(Nc4cc(OC)c(OC)c(OC)c4)c3cc2cc1OCCN1CCN(C)CC1`, the melting point was 115 to 120 °C (dec.).
For `COc1cc(Nc2c(C#N)cnc3c2sc2ccccc23)c(Cl)cc1Cl` [Example 68, 4-(2,4-Dichloro-5-methoxyphenylamino)benzo[4,5]thieno[3,2-b]pyridine-3-carbonitrile], the melting point was 234 to 236 °C.
With `COc1cc2cc3c(Nc4cc(OC)c(OC)c(OC)c4)c(C#N)cnc3nc2cc1OC` [Example 178, 7,8-Dimethoxy-4-(3,4,5-trimethoxyanilino)benzo[b][1,8]naphthyridine-3-carbonitrile] the melting point was 250 to 252 °C (dec.).
Work on `N#Cc1cnc2cc3c(cc2c1Nc1ccc(Oc2ccccc2)cc1)ncn3CCN1CCOCC1` [Example 58, 3-[2-(4-Morpholinyl)ethyl]-8-(4-phenoxyanilino)-3H-imidazo[4,5-g]quinoline-7-carbonitrile] yielded a melting point greater than 260 °C.
Compound `N#Cc1cnc2c(sc3ccc([N+](=O)[O-])cc32)c1Nc1cccc(Br)c1` [Example 91, 4-(3-Bromoanilino)-8-nitro[1]benzothieno[3,2-b]pyridine-3-carbonitrile] has a melting point greater than 300 °C.
Compound `N#Cc1cnc2c(sc3ccc([N+](=O)[O-])cc32)c1Nc1ccc(Cl)cc1Cl` [Example 90, 4-(2,4-Dichloroanilino)-8-nitro[1]benzothieno[3,2-b]pyridine-3-carbonitrile] has a melting point of 210 to 213 °C.
With `COc1cc2cc3c(Nc4cc(OC)c(F)cc4Cl)c(C#N)cnc3cc2cc1O` [Example 220, 4-[(2-Chloro-4-fluoro-5-methoxyphenyl)amino]-8-hydroxy-7-methoxybenzo[g]quinoline-3-carbonitrile] the melting point was 239 to 242 °C (dec.).
`COc1cc(Nc2c(C#N)cnc3cc4cc(OCCN5CCOCC5)c(OC)cc4cc23)c(Cl)cc1F` gave a melting point of 206 to 222 °C.
`COc1cc2cc3c(Nc4cc(OC)c(Cl)cc4Cl)c(C#N)cnc3cc2cc1O` [Example 155, 4-(2,4-Dichloro-5-methoxyphenylamino)-8-hydroxy-7-methoxybenzo[g]quinoline-3-carbonitrile] showed a melting point of 238 to 240 °C.
`COc1cc2cc3c(Nc4ccc(Sc5nccn5C)c(Cl)c4)c(C#N)cnc3cc2cc1OCCN1CCOCC1` [Example 149] showed a melting point greater than 300 °C.
For `COc1cc(Nc2c(C#N)cnc3c2C=C2N=C(NCCN4CCOCC4)N=C2C3)cc(OC)c1OC` [Example 33, 2-{[2-(4-Morpholinyl)ethyl]amino}-8-(3,4,5-trimethoxyanilino)imidazo[4,5-g]quinoline-7-carbonitrile], the melting point was 175 to 178 °C.
With `COc1cc2cc3c(Nc4ccc(Sc5nccn5C)c(Cl)c4)c(C#N)cnc3nc2cc1OCCN1CCOCC1` [Example 176, 4-{3-Chloro-4-[(1-methyl-1H-imidazol-2-yl)sulfanyl]anilino}-7-methoxy-8-[2-(4-morpholinyl)ethoxy]benzo[b][1,8]naphthyridine-3-carbonitrile] the melting point was 160 to 162 °C (dec.).
`COc1ccc2cc3c(Nc4ccc(Cl)cc4Cl)c(C#N)cnc3cc2c1` [Example 104, 4-(2,4-Dichloroanilino)-8-methoxybenzo[g]quinoline-3-carbonitrile] showed a melting point greater than 260 °C.
